Where two headings read alike, the source gives them in different places. Numbered stars: 1 amine (or outer) side, 2 acyl side, 3 side chain; on linkers, the order of the positions; unused ones are H or OH. Bridge positions count the residues as written; N and C are the ends. Square brackets hold non-standard residues; d marks the D form. Peptide text beside a SMILES is read from it. X1 = C=C(N[*:2])c1nc(-c2nc(-c3nc(C(=O)OC)cs3)ccc2C(=O)[*:1])cs1; NMePhe(4-NO2) = CN[C@@H](Cc1ccc([N+](=O)[O-])cc1)C(=O)O; Tic(7-OH) = O=C(O)[C@@H]1Cc2ccc(O)cc2CN1; X2 = O=C(c1csc([C@H](CO)N[*:1])n1)[*:2]; Aad = N[C@@H](CCCC(=O)O)C(=O)O; NMeA = CN[C@@H](C)C(=O)O; Dhb = C/C=C(\N)C(=O)O; Dha = C=C(N)C(=O)O; Sar = CNCC(=O)O

The text below walks through data of article PMC10979747 (Journal of the American Chemical Society, 2024).

One data set in a line: in vitro. The conditions noted are these: buffer or solvent, pH 7.5.
Another data set deals with T1, trypsin.
T1 construct: purchased Thermo Fisher
Nature of the data set: Stability to agarose-immobilized trypsin (LC/MS). In kind it is in vitro ADME. To be noted: isolated enzyme trypsin, pH 7.9. As to the method:
2.10. Thiopeptide metabolic stability experiments
Stability to trypsin. To a solution of the analyte thiopeptide (15 µM) and the internal standard peptide (5 µM NH2-PEG5-wstndwdtnd-PEG5-CONH2;ref 16 lower case encoding is for D-amino acids; synthesized using the standard Fmoc SPPS techniques) in digestion buffer [50 mM tris, 100 mM NaCl, 10 mM EDTA, pH 7.9] was added agarose -immobilized TPCK-treated trypsin (Thermo Fisher; 1 µL of resin slurry; 100 µL final reaction volume ) that was previously washed with digestion buffer thrice. The mixture was agitated at 22 °C, and at various timepoints (0.5, 1, 2, 4, and 6 h) aliquots were withdrawn and quenched with 14 volumes of water/acetonitrile mixture [30: 70 (v/v) water: acetonitr ile with 0.1% (v/v) TFA]. […]

The subject of data set [1] is HCT116 colon carcinoma cells. Nature of the data set: Cell viability assay (Cell Counting Kit-8). The conditions noted are these: for cytotoxicity (cell viability) after 24 h incubation: thiopeptide acetate salts.
For data set [2], the target named is T2, TNIK (Homo sapiens, UniProt Q9UKE5). Nature of the data set: Surface plasmon resonance, binding of thiopeptides to immobilized biotinylated TNIK (single-cycle, then multicycle kinetics). Further details: Biotinylated TNIK (kinase domain, amino acids 1-314;); biotin (biotinylated protein); purchased Carna Biosciences (Kobe, Japan). As to the method: 2.8. Surface plasmon resonance
In the initial experiment, binding affinities between the thiopeptides and TNIK were measured with a Biacore T200 instrument (GE Healthcare) at 25 °C. The assay buffer contained 50 mM Tris (pH 7.5), 150 mM NaCl, 10 mM MgCl2, 0.01% (v/v) tween-20 and 0.1% (v/v) DMSO. For wTP3, the assay buffer additionally contained ATP (f.c.: 1 mM).
Biotinylated TNIK was immobilized on a Biacore CAP chip (GE Healthcare) to a surface density of 950-1200 response units following the standard immobilization protocols provided by the manufacturer. The interaction sensorgrams were measured as single-cycle kinetics performed with five concentrations of the ligand sequentially flown over the chip at a flow rate of 15 μL/min allowing for 20 or 30 s association and 70 or 60 s for dissociation between the steps. The final dissociation step was allowed to proceed for 180 s. […]
was repeated in triplicate on a Biacore 8K instrument (GE Healthcare) using a multi cycle kinetics format. The experimental details were as above, except ATP was not added to the buffer for wTP3. Kinetic parameters and affinities of the interaction were determined assuming the standard 1:1 binding model using the Biacore software (GE Healthcare).
Reported KD values were calculated from the average measured association and dissociation rates (Table S5).
Target sequence in this assay (Q9UKE5 1-314): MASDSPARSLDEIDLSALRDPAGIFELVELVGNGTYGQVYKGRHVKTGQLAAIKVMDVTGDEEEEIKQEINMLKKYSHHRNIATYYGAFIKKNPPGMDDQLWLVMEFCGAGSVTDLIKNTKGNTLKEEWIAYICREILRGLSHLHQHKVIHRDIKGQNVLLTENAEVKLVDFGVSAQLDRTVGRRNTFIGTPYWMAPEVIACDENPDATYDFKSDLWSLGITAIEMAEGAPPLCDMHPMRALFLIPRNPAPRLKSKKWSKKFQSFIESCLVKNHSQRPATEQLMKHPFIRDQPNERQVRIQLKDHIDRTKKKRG

For data set [3], the target named is T2, TNIK. Put plainly: Kinase selectivity profiling (STE-1 kit, ADP-Glo readout): TNIK. The conditions noted are these: 10 μM thiopeptide. In kind it is biochemical. The protocol: (§1) 2.9. Kinase inhibition assays with ADP-Glo
(§2) The ADP-Glo assay system was purchased from Promega. The kinase reaction buffer contained 50 mM Tris (pH 7.5), 10 mM MgCl2 and 0.01% (v/v) triton X-100. […]
(§3) The reactions were stopped by the addition of ADP -Glo reagent (1 volume), and the luminescent signal was developed following the manufacturer’s instructions. […]
(§4) Kinase selectivity profiling. A STE-1 kinase selectivity profiling kit from Promega was utilized to assay the compounds. The experiment was conducted following the manufacturer’s instructions, and the signal was developed using the ADP-Glo assay system as described above. All measurements were performed in triplicate. After background correction, the kinase activities were normalized to a no inhibitor control , and percent remaining activity values were calculated accordingly. […]
Target sequence in this assay (Q9UKE5 whole entry, the tested form may be a part): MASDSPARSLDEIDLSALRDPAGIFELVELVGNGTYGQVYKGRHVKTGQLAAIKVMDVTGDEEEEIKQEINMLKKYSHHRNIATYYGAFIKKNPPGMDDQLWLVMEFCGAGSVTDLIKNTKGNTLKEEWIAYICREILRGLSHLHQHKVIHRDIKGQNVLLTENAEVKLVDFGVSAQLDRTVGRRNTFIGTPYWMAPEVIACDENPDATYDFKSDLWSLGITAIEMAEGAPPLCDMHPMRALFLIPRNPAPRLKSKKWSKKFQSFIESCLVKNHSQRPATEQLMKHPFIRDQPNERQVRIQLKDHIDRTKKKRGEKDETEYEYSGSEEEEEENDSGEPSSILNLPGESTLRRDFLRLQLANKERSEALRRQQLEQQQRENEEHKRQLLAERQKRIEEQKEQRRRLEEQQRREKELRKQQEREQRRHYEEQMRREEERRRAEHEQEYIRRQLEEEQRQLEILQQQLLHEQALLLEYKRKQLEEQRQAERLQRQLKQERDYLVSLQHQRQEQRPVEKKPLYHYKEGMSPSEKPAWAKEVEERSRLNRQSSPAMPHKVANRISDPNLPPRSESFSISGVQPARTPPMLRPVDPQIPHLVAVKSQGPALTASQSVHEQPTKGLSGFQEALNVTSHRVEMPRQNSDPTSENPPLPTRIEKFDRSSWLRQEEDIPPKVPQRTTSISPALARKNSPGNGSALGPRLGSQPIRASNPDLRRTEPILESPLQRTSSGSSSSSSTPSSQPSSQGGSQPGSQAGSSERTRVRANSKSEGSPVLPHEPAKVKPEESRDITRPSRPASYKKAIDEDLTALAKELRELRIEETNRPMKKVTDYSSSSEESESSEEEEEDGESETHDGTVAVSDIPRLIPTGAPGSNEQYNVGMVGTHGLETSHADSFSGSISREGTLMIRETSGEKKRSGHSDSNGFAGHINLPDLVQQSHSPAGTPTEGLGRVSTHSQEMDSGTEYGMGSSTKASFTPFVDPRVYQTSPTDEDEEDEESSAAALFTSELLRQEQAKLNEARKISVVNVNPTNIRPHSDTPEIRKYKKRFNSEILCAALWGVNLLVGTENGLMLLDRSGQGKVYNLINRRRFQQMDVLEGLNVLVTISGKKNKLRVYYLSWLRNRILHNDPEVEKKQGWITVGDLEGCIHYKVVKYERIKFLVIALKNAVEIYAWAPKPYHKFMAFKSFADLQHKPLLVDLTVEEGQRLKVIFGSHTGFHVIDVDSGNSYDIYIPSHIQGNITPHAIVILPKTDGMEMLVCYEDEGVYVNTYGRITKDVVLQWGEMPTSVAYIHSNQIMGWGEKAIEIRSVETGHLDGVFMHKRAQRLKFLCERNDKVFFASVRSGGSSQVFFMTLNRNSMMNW
A general note: ADP-Glo turns the ADP formed in a reaction into a luminescent signal.

The target in data set [4] is T2, TNIK. Nature of the data set: ADP-Glo kinase inhibition assay. The data set is classed as biochemical. Further details: Biotinylated TNIK (kinase domain, amino acids 1-314;); biotin (biotinylated protein); purchased Carna Biosciences (Kobe, Japan). The conditions noted are these: 0.5 nM TNIK, 25 µM ATP, 15 µM MSTtide, 4-parameter logistic fit; for IC50: read-out: ADP-Glo IC50 against TNIK. As to the method:
as §1
Target sequence in this assay (Q9UKE5 1-314): as the sequence (Q9UKE5 1-314) above
The ADP-Glo assay system was purchased from Promega. The kinase reaction buffer contained 50 mM Tris (pH 7.5), 10 mM MgCl2 and 0.01% (v/v) triton X-100. TNIK (1.25 nM) was incubated with various concentrations of analyte inhibitors in kinase reaction buffer at 25 °C for 10 min. After, the reactions were initiated by the addition of ATP and substrate […]
peptide (MSTtide, sequence: NH2-NKGYNTLRRKK-CONH2;ref 14 synthesized using the standard Fmoc SPPS techniques). The final mixtures containing 0.5 nM TNIK, 25 µM ATP, 15 µM MSTtide and variable concentration of the inhibitors were incubated at 25 °C for 30 min. The reactions were stopped by the addition of ADP -Glo reagent (1 volume), and the luminescent signal was developed following the manufacturer’s instructions. Luminesce was recorded on a Tecan M1000 PRO microplate reader (Tecan Group) with 1 s acquisition time and no signal attenuation. TNIK kinase activity was normalized to a no inhibitor control, and […]
values to the standard 4-parameter logistic curve model. […]

A further data set concerns the target MINK (Homo sapiens, UniProt Q8N4C8). Put plainly: Kinase selectivity profiling (STE-1 kit, ADP-Glo readout): MINK. In kind it is biochemical. To be noted: 1 μM thiopeptide. The protocol: as §1, §2, §3, §4
Data set [5] can be described thus: Serum stability assay (LC/MS against internal standard). To be noted: human, human serum diluted in TBS, pH 7.6.
Experimental: The ratio of areas under the peak for the intact analyte over the internal standard (EIC
chromatograms generated with m/z ± 3 cutoff values) were used to calculate the extent of
analyte degradation. Thiopeptide half-life values were obtained from non-linear regression
(scipy)15 of experimentally measured values to the standard first order kinetic decomposition
Serum stability assay. To a solution of analyte thiopeptide (13.3 µM) and the internal
standard peptide in TBS [5 µM; buffer: 50 mM Tris (pH 7.6), 150 mM NaCl] human serum
(0.33 volumes; Cosmo Bio) was added on ice. The solutions were mixed well and transferred to a 37 °C thermostat. At various timepoints, aliquots were withdrawn and quenched with 2.3 volumes of methanol containing 30 mM iodoacetamide. The mixtures were incubated on
ice for 15 min and then at 25 °C for 30 min. The samples were then centrifuged (15300 g for
5 min), and the supernatant (0.5 µL) was analyzed by LC/MS (section 2.5) using method 6
1 – 10 min 1 – 81% B, linear ramp
Data analysis was conducted as for the trypsin digestion assays.
Data set [6] is described as follows: Stability to glutathione (LC/MS). To be noted: for half-life at 10 µM: 5 mM glutathione in HEPES buffer, pH 7.5.
Experimental: (§5) Stability to glutathione. To a freshly prepared solution of glutathione (5 mM) in stability
(§6) buffer [50 mM HEPES (pH 7.5), 100 mM NaCl] was added a solution of analyte (1.5 mM
(§7) thiopeptide in DMSO; f. c.: 10 µM). The contents were mixed and transferred to a 37 °C
(§8) thermostat. At various time points (0.5, 1, 2, 4, 6, and 10 h) aliquots were withdrawn and
(§9) quenched with 2 volumes of methanol containing 30 mM iodoacetamide. The samples were
(§10) analyzed by LC/MS (0.3 µL; section 2.6) using method 3. Areas under the peak curve for all
(§11) thiopeptide-derived products in the sample (TIC chromatograms) were used to calculate
(§12) fractions of intact analyte. Thiopeptide half-life values were obtained from non-linear
(§13) regression (scipy)15 of experimentally measured values to the pseudo-first order
(§14) approximation for the reaction kinetics which can be used since [glutathione] >> [analyte].
The nature of data set [7]: human serum (0.33 volumes; Cosmo Bio) added to thiopeptide and internal standard in TBS. The conditions noted are these: 37 °C, up to various timepoints, time axis of Fig. 5c runs to 30 h.
In data set [8] the test system is agarose-immobilized TPCK-treated trypsin (Thermo Fisher). Nature of the data set: agarose-immobilized TPCK-treated trypsin in digestion buffer [50 mM tris, 100 mM NaCl, 10 mM EDTA, pH 7.9]. To be noted: 22 °C, up to 6 h.
Where [9] appears, read: SPR kinetic data, binding to immobilized TNIK.
[10] abbreviates: average from three multicycle kinetic experiments, 1:1 binding model, 25 °C.
The mark [11] stands for this setting: SPR kinetic data, binding to immobilized TNIK, read-out: KD.

Sequence of MINK (Q8N4C8 whole entry): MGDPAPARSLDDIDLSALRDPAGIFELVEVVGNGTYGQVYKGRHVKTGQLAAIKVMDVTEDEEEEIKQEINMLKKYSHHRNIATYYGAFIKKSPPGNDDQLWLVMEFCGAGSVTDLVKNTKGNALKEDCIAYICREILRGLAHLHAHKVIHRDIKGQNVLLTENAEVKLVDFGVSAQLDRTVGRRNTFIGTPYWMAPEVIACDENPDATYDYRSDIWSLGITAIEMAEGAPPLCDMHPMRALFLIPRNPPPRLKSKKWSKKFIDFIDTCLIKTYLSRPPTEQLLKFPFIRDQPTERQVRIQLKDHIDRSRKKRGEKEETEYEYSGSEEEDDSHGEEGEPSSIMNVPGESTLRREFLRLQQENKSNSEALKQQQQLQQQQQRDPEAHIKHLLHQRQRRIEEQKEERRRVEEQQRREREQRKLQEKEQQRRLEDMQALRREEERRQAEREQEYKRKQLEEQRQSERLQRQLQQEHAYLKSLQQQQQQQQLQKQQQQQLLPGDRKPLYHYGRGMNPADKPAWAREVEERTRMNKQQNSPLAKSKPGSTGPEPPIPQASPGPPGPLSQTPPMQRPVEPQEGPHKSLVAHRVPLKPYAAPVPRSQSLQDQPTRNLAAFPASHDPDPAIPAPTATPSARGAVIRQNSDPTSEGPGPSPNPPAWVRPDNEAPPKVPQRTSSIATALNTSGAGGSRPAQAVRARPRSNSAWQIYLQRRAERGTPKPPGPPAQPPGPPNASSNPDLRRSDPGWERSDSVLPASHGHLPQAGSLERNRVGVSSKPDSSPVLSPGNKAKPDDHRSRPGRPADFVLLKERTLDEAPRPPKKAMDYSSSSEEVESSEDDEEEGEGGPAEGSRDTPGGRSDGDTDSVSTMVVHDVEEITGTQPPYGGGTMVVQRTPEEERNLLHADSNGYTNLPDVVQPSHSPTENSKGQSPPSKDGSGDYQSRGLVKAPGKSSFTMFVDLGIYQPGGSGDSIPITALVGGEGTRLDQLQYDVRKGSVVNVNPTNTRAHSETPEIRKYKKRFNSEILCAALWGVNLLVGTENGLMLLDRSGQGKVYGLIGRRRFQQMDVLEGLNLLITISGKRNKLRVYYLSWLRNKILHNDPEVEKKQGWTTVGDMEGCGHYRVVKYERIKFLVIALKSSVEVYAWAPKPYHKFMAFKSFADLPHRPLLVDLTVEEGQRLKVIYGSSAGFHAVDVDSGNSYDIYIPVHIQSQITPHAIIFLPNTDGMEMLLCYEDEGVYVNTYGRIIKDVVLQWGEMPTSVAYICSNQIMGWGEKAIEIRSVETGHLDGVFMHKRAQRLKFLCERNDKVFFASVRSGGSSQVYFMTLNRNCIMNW
Experimental for in vitro: as §5, §6, §7, §8, §9, §10, §11, §12, §13, §14

What is called half-life is the time needed for the level to fall by half in the phase considered. A lower half-life goes with fast loss. In general, IC50 refers to the concentration that inhibits the measured activity by half. For orientation: koff means a measure of how fast the partners let go of each other. In general, kon refers to a measure of how fast the partners come together. Usually Kd stands for the concentration at which binding is half-saturated. `C=C1NC(=O)[C@H](C)N(C)C(=O)[C@H](CCCNC(=N)N)NC(=O)CN(C)C(=O)/C(=C/C)NC(=O)[C@H](CCCNC(=N)N)NC(=O)[C@H](CC(C)C)NC(=O)[C@H](Cc2c[nH]c3ccccc23)NC(=O)[C@H](Cc2c[nH]c3ccccc23)NC(=O)c2ccc(-c3nc(C(=O)OC)cs3)nc2-c2csc(n2)C(=C)NC(=O)CNC(=O)/C(=C/C)NC(=O)[C@H](Cc2ccc([N+](=O)[O-])cc2)N(C)C(=O)[C@H]([C@@H](C)O)NC1=O` [hTP8] (WWLR[Dhb][Sar]R[NMeA][Dha]T[NMePhe(4-NO2)][Dhb]G; linker N-C via X1) had a half-life at 10 µM in “in vitro” of 6.4 ± 0.1 h. In the data set on trypsin, this compound had a half-life at 15 µM of 4.9 ± 0.6 h. Moreover, the “cytotoxicity (cell viability) after 24 h incubation” value (from here on “cytotoxicity (cell viability)”) in data set [1] (10 μM) is reported as “more cytotoxic than a small molecule control, NCB0846”. The “concentrations at which strongly cytotoxic” value in data set [1] (dose-dependent assay) is reported as “above 5 µM”. For the same compound, in [1] (read-out: IC50, cell viability, dose-dependent 48 h incubation), the IC50 was 7200 nM. Besides, on TNIK [2] (setting [9]), the koff worked out at 0.00256 s⁻¹ and the kon was found to be 1.21e+06 M⁻¹ s⁻¹. The “KD (binding affinity to TNIK)” value on TNIK [2] (setting [10]) was “single-digit”. For the same compound, the dissociation constant (Kd) on TNIK [2] (average from three multicycle kinetic experiments, 1:1 binding model, 25 °C, read-out: KD (binding affinity to TNIK)) was found to be 2.1 nM. Further, the “suppression of TNIK activity” value at TNIK [3] amounted to 94%. Further, the IC50 on TNIK [4] turned out to be 1180 ± 160 nM.

Regarding `C=C1NC(=O)[C@H](CC(C)C)NC(=O)[C@H](CC(N)=O)NC(=O)[C@H](CO)NC(=O)[C@H](CCCNC(=N)N)NC(=O)[C@H](CCCNC(=N)N)NC(=O)CN(C)C(=O)[C@H](C)N(C)C(=O)[C@H](CC(C)C)NC(=O)[C@H](CCCNC(=N)N)NC(=O)[C@@H]2CCCN2C(=O)[C@@H]2Cc3ccc(O)cc3CN2C(=O)[C@H]([C@@H](C)O)NC(=O)[C@H](Cc2c[nH]c3ccccc23)NC(=O)c2ccc(-c3nc(C(=O)OC)cs3)nc2-c2csc1n2` [hTP15] (WT[Tic(7-OH)]PRL[NMeA][Sar]RRSNL; linker N-C via X1), the half-life at 10 µM in “in vitro” is 101 ± 7 h. Moreover, the half-life at 15 µM with trypsin is 1.4 ± 0.1 h. At TNIK [2] (setting [9]), this compound yielded a dissociation rate constant (koff) of 0.0216 s⁻¹ and an on-rate (kon) of 4.78e+06 M⁻¹ s⁻¹. Also, the equilibrium dissociation constant (Kd) at TNIK [2] (setting [11]) worked out at 4.5 nM. Moreover, at TNIK [2] (setting [10]), the “KD (binding affinity to TNIK)” value is on record as “single-digit”. Also, the “inhibition of MINK” value against MINK came to 60%. Besides, at TNIK [4], the “ADP-Glo IC50 against TNIK” value is “sub-μM” and the IC50 was 150 ± 10 nM.

Take `C=C1NC(=O)[C@H](Cc2ccc([N+](=O)[O-])cc2)N(C)C(=O)[C@H]([C@@H](C)O)NC(=O)C(=C)NC(=O)C(=C)NC(=O)[C@@H]2Cc3ccc(O)cc3CN2C(=O)CN(C)C(=O)C(=C)NC(=O)CN(C)C(=O)[C@H](CCCC(N)=O)NC(=O)[C@H](Cc2c[nH]c3ccccc23)NC(=O)[C@H](Cc2c[nH]c3ccccc23)NC(=O)c2ccc(-c3nc(C(=O)OC)cs3)nc2-c2csc(n2)C(=C)NC(=O)CNC1=O` [wTP3] (WW[Aad](NH2)[Sar][Dha][Sar][Tic(7-OH)][Dha][Dha]T[NMePhe(4-NO2)][Dha]G; linker N-C via X1): the half-life at 15 µM in the data set on trypsin is more than 100 h. Moreover, the “cytotoxicity (cell viability)” value in data set [1] (8 μM) was “inactive”. In addition, on TNIK [2] (setting [9]), the koff stood at 0.00579 s⁻¹ and the kon came to 1.37e+06 M⁻¹ s⁻¹. On TNIK [2] (setting [11]), the Kd turned out to be 4.2 nM. Further, the “KD (binding affinity to TNIK)” value at TNIK [2] (setting [10]) is listed as “single-digit”. Moreover, the half-life at 10 µM in data set [5] was 17.2 ± 1.1 h. Further, in data set [6], the half-life at 10 µM is 20.6 ± 2 h. Also, the “metabolic stability, τ1/2, glutathione” value in data set [6] (5 mM glutathione, pH 7.5, 37 °C) amounted to 20.6 h. For the same compound, the “ADP-Glo IC50 against TNIK” value at TNIK [4] is “no measurable binding/inhibition”.

For `C=C1NC(=O)CN(C)C(=O)[C@H](CC(N)=O)NC(=O)c2csc(n2)[C@H](CO)NC(=O)[C@H](Cc2c[nH]c3ccccc23)NC(=O)[C@H](Cc2c[nH]c3ccccc23)NC(=O)c2ccc(-c3nc(C(=O)OC)cs3)nc2-c2csc(n2)C(=C)NC(=O)[C@H](C)NC(=O)/C(=C/C)NC(=O)[C@@H]2Cc3ccc(O)cc3CN2C(=O)[C@H](Cc2ccc([N+](=O)[O-])cc2)N(C)C(=O)CN(C)C(=O)C(=C)NC1=O` [wTP12] (WW[X2]N[Sar][Dha][Dha][Sar][NMePhe(4-NO2)][Tic(7-OH)][Dhb]A; linker N-C via X1), the half-life at 15 µM in the data set with trypsin is more than 100 h. Also, the “cytotoxicity (cell viability)” value in [1] (10 μM) is “inactive”. On TNIK [2] (setting [9]), the koff stood at 0.0597 s⁻¹. The on-rate (kon) at TNIK [2] (setting [9]) was determined as 308000 M⁻¹ s⁻¹. For the same compound, on TNIK [2] (setting [11]), the Kd stood at 194 nM. In addition, the half-life at 10 µM in data set [5] is 56.3 ± 6.4 h; in [6], 16.4 ± 2 h. Besides, the half-inhibitory concentration (IC50) on TNIK [4] amounted to 1270 ± 90 nM.

Regarding WLRTgRaSTfTG, the fragment found entry in data set [7] is recorded as “demethylated but otherwise undigested thiopeptides”.

On to WSCNgSSgfyTA, for which the fragment found entry in [7] is given as “demethylated but otherwise undigested thiopeptides”. In addition, in data set [8], the not cleaved entry is “did not degrade (6 h); completely stable; τ1/2 >100 h”.
